Reference: ChEMBL document CHEMBL6109088 (J Med Chem, 2025)

Tests used:
[1] = in vivo; conditions: male, cynomolgus monkey, plasma, iv, 1 mg/kg
[2] = in vitro; conditions: dog, MDCK
[3] = in vitro; conditions: human, liver microsomes
[4] = in vivo; conditions: male, cynomolgus monkey, iv, 1 mg/kg
[5] = in vivo; conditions: male, Beagle, dog, po, 10 mg/kg
[6] = in vivo; conditions: male, Wistar Hannover, rat, po, 10 mg/kg
[7] = in vivo; conditions: male, Wistar Hannover, rat, iv, 1 mg/kg
[8] = in vivo; conditions: male, cynomolgus monkey, po, 10 mg/kg
[9] = in vivo; conditions: male, Wistar Hannover, rat, iv, 1 mg/kg; remark: listed apart in the source
[10] = in vivo; conditions: male, Beagle, dog, po, 10 mg/kg; remark: listed apart in the source
[11] = in vivo; conditions: male, Beagle, dog, po, 10 mg/kg; remark: listed apart in the source
[12] = in vivo; conditions: male, Wistar Hannover, rat, iv, 1 mg/kg; remark: listed apart in the source
[13] = in vivo; conditions: male, cynomolgus monkey, po, 10 mg/kg; remark: listed apart in the source
[14] = in vivo; conditions: male, cynomolgus monkey, po, 10 mg/kg; remark: listed apart in the source
[15] = in vivo; conditions: male, Wistar Hannover, rat, po, 10 mg/kg; remark: listed apart in the source
[16] = in vivo; conditions: male, Wistar Hannover, rat, po, 10 mg/kg; remark: listed apart in the source
[17] = in vivo; conditions: male, Wistar Hannover, rat, plasma, iv, 1 mg/kg
[18] = in vivo; conditions: male, Wistar Hannover, rat, po, 10 mg/kg; remark: listed apart in the source
[19] = tested on: SARS-CoV-2; test: microbe, parasite or virus in culture; conditions: Severe acute respiratory syndrome coronavirus 2, USA-WA1/2020, Vero C1008
[20] = physchem; conditions: octanol/water
[21] = in vivo; conditions: male, Beagle, dog, plasma, iv, 1 mg/kg
[22] = in vivo; conditions: male, cynomolgus monkey, iv, 1 mg/kg; remark: listed apart in the source
[23] = in vivo; conditions: male, cynomolgus monkey, po, 10 mg/kg; remark: listed apart in the source
[24] = in vivo; conditions: male, Beagle, dog, iv, 1 mg/kg
[25] = in vivo; conditions: male, Wistar Hannover, rat, po, 10 mg/kg; remark: listed apart in the source
[26] = in vivo; conditions: male, Beagle, dog, iv, 1 mg/kg; remark: listed apart in the source
[27] = in vivo; conditions: rat, po
[28] = in vivo; conditions: male, cynomolgus monkey, iv, 1 mg/kg; remark: listed apart in the source
[29] = in vivo; conditions: male, Wistar Hannover, rat, iv, 1 mg/kg; remark: listed apart in the source

Q: Which results are given for CC(C)[C@H](NC(=O)C(F)(F)F)C(=O)N1C[C@H]2[C@@H]([C@H]1C(=O)N[C@@H](C[C@@H]1CCNC1=O)C(=O)c1nc3ccccc3s1)C2(C)C?
A: clearance [1]: 26 mL/min/kg; Papp A→B [2]: 13.1 ×10⁻⁶ cm/s; microsomal CLint [3]: 30.3 µL/min/mg; Vd [4]: 0.58 L/kg; Cmax [5]: 383 ng/mL; Cmax at 4 h [6]: 521 ng/mL; half-life at 4 h [7]: 6.8 h; bioavailability [8]: 7.85%; Vd at 4 h [9]: 2.16 L/kg; half-life [10]: 4.43 h; Tmax [11]: 0.75 h; AUC(0-inf) at 4 h [12]: 632 ng·h/mL; AUC(0-inf) [13]: 505 ng·h/mL; Cmax [14]: 331 ng/mL; bioavailability at 4 h [15]: 54.3%; AUC(0-inf) at 4 h [16]: 2310 ng·h/mL; clearance at 4 h [17]: 31 mL/min/kg; half-life at 4 h [18]: 3.39 h; EC50 [19]: 85.3 nM; logD [20]: 3; clearance [21]: 20.7 mL/min/kg; AUC(0-inf) [22]: 977 ng·h/mL; Tmax [23]: 1.5 h; Vd [24]: 1.1 L/kg; Tmax at 4 h [25]: 0.67 h; half-life [26]: 0.9 h; bioavailability [27]: 54%; half-life [28]: 1.08 h; AUC(0-inf) at 4 h [29]: 538 ng·h/mL
